Assay results published in a melting point compilation (Tetko et al.; mined from patent text by program, amines drawn as free bases though some values may be those of a salt).

Row | SMILES | melting point [°C]
1 | COC(=O)NC1=NCC(c2ccccc2)N1C (configuration not stated) | 145 to 147
2 | COC(=O)C(=O)c1cc2ccccc2n1S(=O)(=O)c1ccccc1 | 111 to 112
3 | O=C(O)c1ccc(NCCCCCCCCc2ccccc2)cc1 | 113 to 115
4 | CSc1c(O[C@@H]2CCC[C@H](N)C2)ccc2[nH]ncc12 (relative stereo) | 112 to 113
5 | Oc1ccccc1-c1nc2sc(-c3ccccc3O)nc2s1 | 300
6 | CCC(CCNC(=O)C(C#N)=Cc1ccc(O)c(O)c1)NC(=O)C(C#N)=Cc1ccc(O)c(O)c1 (configuration not stated) | 252
7 | COc1cc2c(cc1OC)C(C(C#N)SCCOC(C)=O)=NCC2 (configuration not stated) | 157
8 | CCCOC(=O)C1=C(C)NC(C)=C(C(=O)N[C@H](C(=O)OCC)C(C)C)[C@@H]1c1cccc([N+](=O)[O-])c1 | 119 to 121
9 | Cc1nn(-c2c(Cl)cc(C(F)(F)F)cc2Cl)c(N)c1SC(C)(F)F | 123 to 125
10 | O=C(Nc1cnc2c(c1)nc1n2CCCC1)c1cc2cc(C(F)(F)F)ccc2n1Cc1cccc(F)c1 | 262 to 263
11 | CCn1c(=O)c2[nH]c(/C=C/c3ccc4c(c3)OCCO4)nc2n(CC)c1=O | > 300
12 | CNS(=O)(=O)Nc1ncccc1C(=O)OC | 133 to 139
13 | O=C(c1ccc(OCCCl)cc1)N1CCOCC1 | 102 to 104
14 | O=Cc1nnc2n1-c1ccc(Cl)cc1C(c1ccccc1)=NC2 | 133 to 135
15 | CCC1=C(c2cccc(C(F)(F)F)c2)n2ncc(C#N)c2N(C(=O)CN2CCN(Cc3ccccc3)CC2)C1 | 97 to 99
16 | C[C@@H]1NC(=O)c2cccc(N)c2NC1=O | 320
17 | CC(=O)OC(C(Oc1ccccc1)n1ccnc1)C(C)(C)C (configuration not stated) | 114 to 121
18 | COc1cc(C)c(C(=O)c2c(OC)cnc(Br)c2Cl)c(OC)c1OC | 97 to 99
19 | Cc1c(C#N)sc(N=Nc2c(NCC(C)O)nc(NCC(C)O)c(C#N)c2C)c1C#N (configuration not stated) | 268 to 269
20 | CC(C)(C)OC(=O)N1CCN(CCc2ccc(Nc3ncc4c(n3)-c3ccccc3C(c3ccccc3C(F)(F)F)C4)cc2)CC1 (configuration not stated) | 234 to 235
21 | c1cc(-c2ccsc2)ccn1 | 138
22 | CC1CN(c2cccc(Cl)n2)N=C1N (configuration not stated) | 175 to 176
23 | O=S1(=O)O[C@H](COCc2ccccc2)CC[C@@H](COCc2ccccc2)O1 | 57 to 59
24 | COc1cc(C=O)c(C)c(OC)c1 | 63.4 to 65.1
25 | Nc1ncc(-c2cc(Cl)cc(Cl)c2Cl)c(N)n1 | 246 to 249

Row | SMILES | melting point [°C]
26 | C=CC(=O)N(CC)c1cn(-c2cccnc2)nc1Cl | 67 to 68
27 | COC(=O)C=Cc1ccc(Cl)c([N+](=O)[O-])c1 | 107
28 | CCOP(=O)(Cc1ccc(NC(=O)c2sc(SC)c3c2CCc2sc(CC)nc2-3)cc1)OCC | 179 to 180
29 | C=C(C)C(=O)OC1CC(=O)NC1=O (configuration not stated) | 102
30 | N#Cc1ccc(N2CC(CO)OC2=O)cc1 (configuration not stated) | 186
31 | COc1ccc(C2SC(=O)NC2=O)cc1C(=O)NCc1ccc(C(F)(F)F)cc1 (configuration not stated) | 168 to 169
32 | O=C(O)c1ccn(-c2ccc(Cl)cc2)c1 | 222 to 224
33 | CCOC(=O)CN1C(=O)C(NC(=O)Cc2ccc(Cl)cc2)N=C(c2ccccc2)c2ccccc21 (configuration not stated) | 205 to 207
34 | O=C(N1CCN(c2ccncc2Cl)CC1)N1CCN(S(=O)(=O)c2ccc(Br)cc2)CC1 | 194 to 195
35 | CC(C)(C)c1cc(O)c(N)c([N+](=O)[O-])c1 | 180 to 181
36 | CC(C)(Cc1c(Cc2ccccc2)c2cc(OCc3ccc4ccccc4n3)ccc2n1Cc1ccc(Cl)cc1)C(=O)O | 178
37 | CCOC(=O)c1cn2c3c(c(F)c(F)cc3c1=O)CCC2CO (configuration not stated) | 256 to 258
38 | O=C(Nc1ccc(Sc2c(O)c3c(Cl)cc(Cl)cc3[nH]c2=O)cc1)c1ccco1 | 296 to 300
39 | CCC(CC)[C@@H](CO)NS(=O)(=O)c1ccc(Cl)s1 | 115 to 118
40 | CCOC(OCC)N1C(=O)C(c2ncnc3cc(OCCOC)c(OC)cc23)c2cc(F)ccc21 (configuration not stated) | 245 to 255
41 | O=C(CBr)c1cc2c(Cl)cccc2s1 | 116 to 118
42 | Cn1c(OC(F)F)n[nH]c1=O | 111
43 | COc1cccc(NC(=O)N(C)Cc2cccc3c2CN(C2CCC(=O)NC2=O)C3=O)c1 (configuration not stated) | 296 to 298
44 | COc1nc2cc(Cl)c(Cl)c(C#Cc3ccccc3)c2nc1OC | 170 to 172
45 | COc1cc2c(cc1C)OC1(CC2(C)C)CC(C)(C)c2cc(OCC(=O)O)c(C)cc2O1 (configuration not stated) | 195 to 197
46 | CCC#CCOc1cc2c(cc1C=O)C(C)(C)CCC2(C)C | 90 to 91
47 | CCCCCCC(=O)N[C@H](CCC(=O)O)C(=O)O | 92 to 96
48 | Cc1c(O)cccc1C(=O)N[C@@H](Cc1ccccc1)[C@H](O)C(=O)N1CSC(C)(C)[C@H]1C(=O)N[C@@H]1CCOc2ccccc21 | 135 to 136
49 | CNC(N)=C(CCSCc1csc(CN(C)C)n1)[N+](=O)[O-] | 130 to 132
50 | CCNn1cc(C(=O)O)c(=O)c2cc(F)c(Cl)cc21 | 258

Further lines, results first:

Row | melting point [°C] | SMILES
51 | 176 to 178 | Nc1ccc(N2C(=O)c3ccccc3C2=O)cc1S(F)(F)(F)(F)F
52 | 78 to 83 | Cc1cc(C2(C(F)(F)F)ON=C(c3ccc(F)cc3)O2)ccc1N (configuration not stated)
53 | 245 to 246 | Cc1c(Cl)ccc(NC(=O)CN2C(=O)c3ccccc3C2=O)c1Cl
54 | > 300 | CCn1c(=O)c2nc(-c3ccc(/C=C/C(=O)O)cc3)[nH]c2n(C)c1=O
55 | > 260 | O=C1c2ccccc2C(=O)c2sc(-c3ccc(F)cc3)nc21
56 | 146 | O=C(O)CCc1cc2ccccc2c(-c2ccccc2)n1
57 | 60 to 61 | Cc1cc(Oc2ccccc2)ccc1C(=O)CBr
58 | 125 to 126 | CCOC(=O)C1=NN(c2cccc(Cl)c2)C(c2ccccc2)CC1 (configuration not stated)
59 | 145 | Cc1ccc(S(=O)(=O)N2CCC(C#N)(c3ccc(Cl)cc3Cl)CC2)cc1
60 | 142 | CC(Cc1n[nH]c(=O)c2ccccc12)c1cccnc1 (configuration not stated)
61 | 135 to 136 | CCN(CC)C(=O)COC(=O)c1ccc(N)cc1
62 | 131 to 133 | CCCCOCCOc1ccc(-c2ccc3c(c2)C=C(C(=O)Nc2ccc(SCc4nncn4CCC)c(C(F)(F)F)c2)CCN3CC(C)C)cc1
63 | 83 | CCCCCc1c(C(C)C)nc(C(C)C)c(C(C)O)c1-c1ccc(F)cc1 (configuration not stated)
64 | 74.9 to 77.9 | Cc1ccc(-c2cc(CN)c(=O)n(CC(C)C)n2)cc1
65 | 179 to 180 | Cc1nn(-c2ccc(F)cc2)cc1C(=O)Nc1ccc(OCC(C)C)c(C#N)c1
66 | 136 to 137 | CCOC(=O)C1=C(C)Nc2ccnc(OC(C)C)c2C1c1ccccc1 (configuration not stated)
67 | 172 | N#CC(Cc1ccc(-c2ccccc2)cc1)C(=O)N=NO (configuration not stated)
68 | 272 to 274 | CCOC(=O)c1cc2n(C)c3ccc(Cl)cc3c(=O)n2n1
69 | 187 to 189 | CN(C)C=CC(=O)c1c(-c2ccc(F)cc2)nc2occn12
70 | 103 to 105 | COc1ccc(CS(=O)c2cc(OC)c(OC)c(OC)c2)cc1 (configuration not stated)
71 | 207 to 208 | CCn1c(=O)ccc2cnc(Nc3ccc(-c4ccccc4)cc3)nc21
72 | 138 to 142 | CC(C)c1cccc(C(C)C)c1NC(=O)NCC1(c2ccccc2)CC1
